# Measurements from US20240270748A1 (Merck Patent GmbH, priority 2021, published 2024).
# Structures can show the parent of a compound that is named as a salt.
# Tests used:
# NCI-H226 cells = assay: Viability assay in NCI-H226 (Yap-dependent) cells, CyQuant; type: cell-based, human
# Experimental: (§1) Viability Assay in NCI-H226 (Yap-Dependent) and SW620 Yap KO (Yap Independent) Cells
# (§2) The ability of YAP-TEAD inhibitors to inhibit tumor cell growth was evaluated using two different cell lines: NCI-H226, which is a YAP dependent cell line, and SW620 cells, where YAP and TAZ were knocked out using CRISPR to generate a YAP independent cell line.
# (§3) For the assay, cells were treated in duplicates with the test compounds in a 10-point dose, 1:3 dilution steps, with the top concentration starting at 30 μM (final concentration in assay). After a 96 hour incubation at 37° C., 95% rH, and 5% CO2, a cell-permeant DNA-binding dye that stains only healthy cells (CyQUANT®, Promega) was added to the cells, allowing the quantification of cell viability.
# (§4) Cell Media: The NCI-H226 cells were cultured in the following media: RPMI 1640, +10% FBS, +1× GlutaMAX, +10 mM HEPES, +0.5% Pen/Strep. The SW620-KO cells were cultured in the following media: DMEM/F-12, +10% FBS, +1× GlutaMAX, +10 mM HEPES, +0.5% Pen/Strep.
# (§5) Reagents: The reagents used are listed below:
# (§6) Cell culture: The cells were examined using an inverted microscope to check for health, cell density, etc. To dissociate adherent cells, the monolayer of cells was washed once with pre-warmed PBS. After removing the PBS, 3 ml pre-warmed Accutase was added to a F75 flask, dispersed evenly and the flask was allowed to sit in incubator for ˜4-5 minutes.
# (§7) When a single cell suspension was obtained, 7 ml of prewarmed growth media was added and resuspended with the cells. The cell suspension was transferred to a sterile 15 ml conical centrifuge tube, and spun for 5 min at 300×g, RT. The supernatant was discarded and the pellet was resuspended in 10 ml of pre-warmed growth media.
# (§8) The total cell count was determined, and 20 μl of the desired cell number was added to each well of a 384 well plate using a Multidrop Combi. The plates were then incubated for 24 hours at 37° C., 95% rH, and 5% CO2.
# (§9) Compound treatment: 24 hours after seeding, the cells were treated with compounds.
# (§10) A 1:333 dilution of compounds, diluted in DMSO, was made to get a final concentration of 0.3% DMSO per well. To transfer the compounds to the assay plate, […] was shot from Labcyte low dead volume plates to the cell plates containing 20 μl media/well with the ECHO 555 liquid handling system.
# (§11) After treatment, the cells were fed with 20 μl fresh pre-warmed assay media using a Multidrop combi.
# (§12) The assay plates were then incubated for 96 h at 37° C., 95% rH, and 5% CO2.
# (§13) 96 h after treatment 30 μl of CyQuant® reagent was added to the assay plates using a Multidrop combi in the dark. The plates were then incubated for 1 hour at 37° C., 95% rH and 5% CO2. Thereafter, the assay plates were removed from the incubator and allowed to equilibrate to RT for 30 min in the dark without lid. Finally, they were measured using an EnVision microplate reader with a FITC bottom read program.
# SW620 Yap KO cells = assay: Viability assay in SW620 Yap KO (Yap independent) cells, CyQuant; type: cell-based; conditions: Homo sapiens, SW-620, 96 h
# Experimental: as §1, §2, §3, §4, §5, §6, §7, §8, §9, §10, §11, §12, §13
# YAP-TEAD interaction = assay: SK-HEP-1 reporter assay (8xTEAD responsive elements driving NanoLuc luciferase); type: cell-based
# Procedure, shortened: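 Reporter read-out: NanoLuc luminescence from 8×TEAD elements stably integrated in SK-HEP-1 cells, after 24 h compound exposure at 37° C. Ten concentrations tested in duplicate, top 30 μM final, 0.3% DMSO; IC50 from curve.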
# [1] = Homo sapiens, NCI-H226, 96 h, class symbols
# [2] = n.d. = value not detectable below threshold given in parentheses
# [3] = Homo sapiens, SK-HEP1, SK-HEP-1 reporter assay, class symbols
# [4] = Homo sapiens, SK-HEP1, SK-HEP-1 reporter assay, n.d. = value not detectable below threshold given in parentheses
# [5] = Homo sapiens, NCI-H226, 96 h, n.d. = value not detectable below threshold given in parentheses
# [6] = Homo sapiens, SK-HEP1, SK-HEP-1 reporter assay, n.d. = value not detectable below threshold given in parentheses, ND = not determinable within the entire range
SMILES,IC50 (NCI-H226 cells; [1]),IC50 (YAP-TEAD interaction; [3]),also measured
"Cn1nc2c3cc(C(=O)N=[S@@](C)(=O)CCCO)ccc3n(-c3ccc(C(F)(F)F)cc3)c2n1 (single isomer, unassigned) [Example C173]",1 to 100 nM,10 to 100 nM,IC50 (SW620 Yap KO cells; [2]): > 30000 nM
"Cn1cc2c3cc(C(=O)N=[S@](=O)(CCO)Cc4ccccn4)ccc3n(-c3ccc(C(F)(F)F)cc3)c2n1 (single isomer, unassigned) [Example C175]",1 to 100 nM,–,IC50 (SW620 Yap KO cells; [2]): > 3000 nM; IC50 (YAP-TEAD interaction; [4]): > 9500 nM
"Cn1cc2c3cc(C(=O)N=[S@@](=O)(CCO)Cc4ccccn4)ccc3n(-c3ccc(C(F)(F)F)cc3)c2n1 (single isomer, unassigned) [Example C177]",100 to 1000 nM,–,IC50 (SW620 Yap KO cells; [2]): > 3000 nM; IC50 (YAP-TEAD interaction; [4]): > 6500 nM
"Cn1nc2c3cc(C(=O)N[C@](C)(CO)c4ccccn4)ccc3n(-c3ccc(C(F)(F)F)cc3)c2n1 (single isomer, unassigned) [Example C187]",1 to 100 nM,10 to 100 nM,IC50 (SW620 Yap KO cells; class symbols): 1000 to 10000 nM
"Cn1nc2c3cc(C(=O)N[C@@](C)(CO)c4ccccn4)ccc3n(-c3ccc(C(F)(F)F)cc3)c2n1 (single isomer, unassigned) [Example C189]",1 to 100 nM,10 to 100 nM,IC50 (SW620 Yap KO cells; [2]): > 30000 nM
"Cn1cc2c3cc(C(=O)N[C@H](CCO)c4ccccn4)ccc3n(-c3ccc(C(F)(F)F)cc3)c2n1 (single isomer, unassigned) [Example C239]",100 to 1000 nM,100 to 10000 nM,–
"Cn1cc2c3cc(C(=O)O)cnc3n(-c3ccc(C(F)(F)F)cc3)c2n1 [Example 37, 4-methyl-7-[4-(trifluoromethyl)phenyl]-4,5,7,9-tetraazatricyclo[6.4.0.0^2,6]dodeca-1(8),2,5,9,11-pentaene-11-carboxylic acid]",–,–,"IC50 (NCI-H226 cells; 96 h, class symbols): > 10000 nM; IC50 (YAP-TEAD interaction; SK-HEP-1 reporter assay, class symbols): 1 to 10 nM"
"Cc1snc2c1c1cc(C(=O)NCc3ncccn3)ccc1n2-c1ccc(C(F)(F)F)cc1 [Example C63, 3-methyl-N-[(pyrimidin-2-yl)methyl]-8-[4-(trifluoromethyl)phenyl]-8H-[1,2]thiazolo[3,4-b]indole-5-carboxamide]",1 to 100 nM,1 to 10 nM,–
"Cn1cc2c3cc(NS(=O)(=O)Cc4ccncc4)ccc3n(-c3ccc(C(F)(F)F)cc3)c2n1 [Example C128, N-{2-methyl-8-[4-(trifluoromethyl)phenyl]-2H,8H-pyrazolo[3,4-b]indol-5-yl}-1-(pyridin-4-yl)methanesulfonamide]",–,–,IC50 (NCI-H226 cells; [5]): > 3 nM; IC50 (YAP-TEAD interaction; [6]): > 10000 nM
"Cn1cc2c3cc(NS(=O)(=O)Cc4cccnc4)ccc3n(-c3ccc(C(F)(F)F)cc3)c2n1 [Example C129, N-{2-methyl-8-[4-(trifluoromethyl)phenyl]-2H,8H-pyrazolo[3,4-b]indol-5-yl}-1-(pyridin-3-yl)methanesulfonamide]",1000 to 10000 nM,–,IC50 (YAP-TEAD interaction; [6]): > 10000 nM
"Cn1cc2c3cc(NS(=O)(=O)Cc4ccccn4)ccc3n(-c3ccc(C(F)(F)F)cc3)c2n1 [Example C130, N-{2-methyl-8-[4-(trifluoromethyl)phenyl]-2H,8H-pyrazolo[3,4-b]indol-5-yl}-1-(pyridin-2-yl)methanesulfonamide]",–,–,IC50 (NCI-H226 cells; [5]): > 3 nM; IC50 (YAP-TEAD interaction; [6]): > 30000 nM
"Cn1cc2c3cc(C(=O)N4CC[C@H](O)C4)ccc3n(-c3ccc(C(F)(F)F)cn3)c2n1 [Example C151, (3S)-1-{2-methyl-8-[5-(trifluoromethyl)pyridin-2-yl]-2H,8H-pyrazolo[3,4-b]indole-5-carbonyl}pyrrolidin-3-ol]",100 to 1000 nM,–,IC50 (YAP-TEAD interaction; [6]): > 10000 nM
"Cn1cc2c3cc(C(=O)NC(CO)c4ncc[nH]4)ccc3n(-c3ccc(C(F)(F)F)cc3)c2n1 (stereo not drawn) [Example C273, N-[2-hydroxy-1-(1H-imidazol-2-yl)ethyl]-2-methyl-8-[4-(trifluoromethyl)phenyl]-2H,8H-pyrazolo[3,4-b]indole-5-carboxamide trifluoroacetate]",1 to 100 nM,10 to 100 nM,–
"Cn1nc2c3cc(C(=O)NC(CO)c4cscn4)ccc3n(-c3ccc(C(F)(F)F)cc3)c2n1 (stereo not drawn) [Example C276, N-[2-hydroxy-1-(1,3-thiazol-4-yl)ethyl]-2-methyl-4-[4-(trifluoromethyl)phenyl]-2H,4H-[1,2,3]triazolo[4,5-b]indole-7-carboxamide]",1 to 100 nM,10 to 100 nM,–
